Consider 21 molecules from ChEMBL document CHEMBL5291721, “A preclinical secondary pharmacology resource illuminates target-adverse drug reaction associations of marketed drugs” (Nat Commun, 2023).

One experiment addresses Bile salt export pump (Homo sapiens, UniProt O95342). Type of experiment: functional.
The next experiment deals with T1, Adenosine receptor A1 (Homo sapiens, UniProt P30542).
T1 sequence (P30542 whole entry): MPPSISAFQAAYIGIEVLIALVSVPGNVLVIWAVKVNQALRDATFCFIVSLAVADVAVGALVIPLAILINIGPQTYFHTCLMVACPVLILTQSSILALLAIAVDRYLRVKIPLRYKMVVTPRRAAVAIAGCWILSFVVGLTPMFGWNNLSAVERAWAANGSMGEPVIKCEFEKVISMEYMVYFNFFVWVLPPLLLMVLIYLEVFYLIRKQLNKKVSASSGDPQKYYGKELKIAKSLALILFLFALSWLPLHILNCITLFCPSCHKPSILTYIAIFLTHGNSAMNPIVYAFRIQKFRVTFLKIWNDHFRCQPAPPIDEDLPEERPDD

Experiment [1] deals with Neuronal acetylcholine receptor subunit alpha-4 (Homo sapiens, UniProt P43681).
Experiment [2] has as its target T2, 5-hydroxytryptamine receptor 1A (Homo sapiens, UniProt P08908).
T2 sequence (P08908 whole entry): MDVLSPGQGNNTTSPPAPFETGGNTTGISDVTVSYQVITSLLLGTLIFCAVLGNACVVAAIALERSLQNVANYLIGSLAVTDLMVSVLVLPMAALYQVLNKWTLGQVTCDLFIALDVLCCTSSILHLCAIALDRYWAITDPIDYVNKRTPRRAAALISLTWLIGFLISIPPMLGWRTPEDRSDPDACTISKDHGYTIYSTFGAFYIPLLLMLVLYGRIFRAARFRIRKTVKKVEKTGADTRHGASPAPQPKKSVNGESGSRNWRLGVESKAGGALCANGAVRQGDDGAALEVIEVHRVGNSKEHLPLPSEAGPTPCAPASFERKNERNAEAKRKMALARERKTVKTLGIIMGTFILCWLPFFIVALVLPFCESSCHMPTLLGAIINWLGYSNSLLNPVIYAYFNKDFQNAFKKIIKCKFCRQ
It is filed as functional, cell-based.

Experiment [3] deals with 5-hydroxytryptamine receptor 2B (Homo sapiens, UniProt P41595). Type of experiment: functional, cell-based.
The target of experiment [4] is T3, 5-hydroxytryptamine receptor 2C (Homo sapiens, UniProt P28335).
T3 sequence (P28335 whole entry): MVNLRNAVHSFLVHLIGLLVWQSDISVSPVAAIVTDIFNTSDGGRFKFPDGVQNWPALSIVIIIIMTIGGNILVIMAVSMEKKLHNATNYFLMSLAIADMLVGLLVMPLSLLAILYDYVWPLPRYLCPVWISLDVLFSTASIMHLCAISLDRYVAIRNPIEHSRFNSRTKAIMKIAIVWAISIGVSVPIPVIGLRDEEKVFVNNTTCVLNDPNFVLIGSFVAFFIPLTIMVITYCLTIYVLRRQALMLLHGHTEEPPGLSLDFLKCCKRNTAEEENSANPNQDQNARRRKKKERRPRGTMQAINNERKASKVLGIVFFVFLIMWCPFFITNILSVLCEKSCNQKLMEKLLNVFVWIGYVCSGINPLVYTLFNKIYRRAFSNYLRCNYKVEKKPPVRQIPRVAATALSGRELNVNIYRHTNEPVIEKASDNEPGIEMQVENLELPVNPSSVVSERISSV

Another experiment concerns the target Motilin receptor (Homo sapiens, UniProt O43193).
Experiment [5] has as its target Delta-type opioid receptor (Homo sapiens, UniProt P41143).
Experiment [6] has as its target T4, Equilibrative nucleoside transporter 1 (Homo sapiens, UniProt Q99808).
T4 sequence (Q99808 whole entry): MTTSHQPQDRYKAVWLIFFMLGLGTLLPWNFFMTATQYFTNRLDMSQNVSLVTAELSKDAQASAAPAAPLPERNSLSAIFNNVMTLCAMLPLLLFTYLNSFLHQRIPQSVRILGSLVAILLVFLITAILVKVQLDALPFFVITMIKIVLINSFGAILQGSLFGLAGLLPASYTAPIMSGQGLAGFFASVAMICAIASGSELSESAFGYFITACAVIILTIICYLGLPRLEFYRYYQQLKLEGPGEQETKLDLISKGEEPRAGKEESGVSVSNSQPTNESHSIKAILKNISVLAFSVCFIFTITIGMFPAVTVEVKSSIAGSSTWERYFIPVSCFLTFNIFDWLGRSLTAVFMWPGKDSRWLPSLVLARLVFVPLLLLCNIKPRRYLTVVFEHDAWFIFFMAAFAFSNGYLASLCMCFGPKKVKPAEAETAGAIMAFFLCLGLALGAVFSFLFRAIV

For experiment [7], the target named is T5, Amine oxidase [flavin-containing] A (Homo sapiens, UniProt P21397).
T5 sequence (P21397 whole entry): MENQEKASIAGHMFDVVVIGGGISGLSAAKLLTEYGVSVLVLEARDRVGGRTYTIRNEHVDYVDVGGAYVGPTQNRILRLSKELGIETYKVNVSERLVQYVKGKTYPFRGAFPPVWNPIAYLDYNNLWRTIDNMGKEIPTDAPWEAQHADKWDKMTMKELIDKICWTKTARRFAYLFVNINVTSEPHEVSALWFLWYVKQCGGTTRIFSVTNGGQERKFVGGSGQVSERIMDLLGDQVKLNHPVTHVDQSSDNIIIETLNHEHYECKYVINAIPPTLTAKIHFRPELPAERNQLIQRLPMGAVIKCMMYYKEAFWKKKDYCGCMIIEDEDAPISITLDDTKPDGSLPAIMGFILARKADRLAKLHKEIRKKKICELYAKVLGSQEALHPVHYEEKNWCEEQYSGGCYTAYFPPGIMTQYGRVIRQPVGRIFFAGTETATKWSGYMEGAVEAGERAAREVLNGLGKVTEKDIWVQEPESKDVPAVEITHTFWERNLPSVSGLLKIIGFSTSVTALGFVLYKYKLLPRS
Type of experiment: functional.

In experiment [8] the target is cGMP-inhibited 3',5'-cyclic phosphodiesterase 3A (Homo sapiens, UniProt Q14432). It is filed as functional.
Note: assay procedure not described here.

Delta-type opioid receptor, sequence (P41143 whole entry): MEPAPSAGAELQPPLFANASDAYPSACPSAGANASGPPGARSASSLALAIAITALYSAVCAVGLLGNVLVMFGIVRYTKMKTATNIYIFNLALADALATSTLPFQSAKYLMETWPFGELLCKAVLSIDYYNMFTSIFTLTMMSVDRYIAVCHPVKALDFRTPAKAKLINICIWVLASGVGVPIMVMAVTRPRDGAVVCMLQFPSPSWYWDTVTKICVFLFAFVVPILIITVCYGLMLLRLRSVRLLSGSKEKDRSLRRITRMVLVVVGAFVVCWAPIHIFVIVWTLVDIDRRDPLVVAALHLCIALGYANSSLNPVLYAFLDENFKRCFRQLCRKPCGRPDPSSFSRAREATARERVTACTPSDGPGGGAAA
Bile salt export pump, sequence (O95342 whole entry): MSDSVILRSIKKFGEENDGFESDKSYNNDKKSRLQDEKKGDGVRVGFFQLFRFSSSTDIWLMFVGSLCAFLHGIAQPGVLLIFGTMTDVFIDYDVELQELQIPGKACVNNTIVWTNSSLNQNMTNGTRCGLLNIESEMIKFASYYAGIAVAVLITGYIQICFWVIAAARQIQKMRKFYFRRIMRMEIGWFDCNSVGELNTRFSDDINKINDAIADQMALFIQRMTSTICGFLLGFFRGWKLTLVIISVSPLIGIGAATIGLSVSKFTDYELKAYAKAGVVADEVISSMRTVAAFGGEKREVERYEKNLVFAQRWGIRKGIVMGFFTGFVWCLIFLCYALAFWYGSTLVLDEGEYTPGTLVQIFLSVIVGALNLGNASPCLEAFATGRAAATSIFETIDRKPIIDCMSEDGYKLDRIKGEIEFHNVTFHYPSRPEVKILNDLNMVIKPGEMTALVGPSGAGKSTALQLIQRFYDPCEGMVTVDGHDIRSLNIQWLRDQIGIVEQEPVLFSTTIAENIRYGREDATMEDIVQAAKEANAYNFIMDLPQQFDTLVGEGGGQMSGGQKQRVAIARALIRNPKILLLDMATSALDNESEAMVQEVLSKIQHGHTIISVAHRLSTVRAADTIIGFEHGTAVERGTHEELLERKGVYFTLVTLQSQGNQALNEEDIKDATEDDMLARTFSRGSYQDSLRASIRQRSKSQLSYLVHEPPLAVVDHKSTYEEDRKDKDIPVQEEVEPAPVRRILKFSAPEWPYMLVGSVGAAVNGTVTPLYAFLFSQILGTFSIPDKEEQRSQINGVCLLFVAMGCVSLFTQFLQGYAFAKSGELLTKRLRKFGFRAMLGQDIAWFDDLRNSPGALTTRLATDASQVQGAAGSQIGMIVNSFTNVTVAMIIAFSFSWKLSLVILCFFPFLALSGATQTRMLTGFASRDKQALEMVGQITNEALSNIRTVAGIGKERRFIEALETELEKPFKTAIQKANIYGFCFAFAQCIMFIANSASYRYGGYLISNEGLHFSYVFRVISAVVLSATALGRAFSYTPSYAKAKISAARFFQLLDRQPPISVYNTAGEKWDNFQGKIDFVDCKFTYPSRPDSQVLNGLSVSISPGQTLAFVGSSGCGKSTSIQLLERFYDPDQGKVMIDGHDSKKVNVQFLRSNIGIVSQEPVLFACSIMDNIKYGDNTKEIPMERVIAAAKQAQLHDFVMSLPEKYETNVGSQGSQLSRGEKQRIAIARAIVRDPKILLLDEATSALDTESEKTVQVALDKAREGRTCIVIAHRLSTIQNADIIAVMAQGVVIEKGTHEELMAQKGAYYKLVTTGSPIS
Neuronal acetylcholine receptor subunit alpha-4, sequence (P43681 whole entry): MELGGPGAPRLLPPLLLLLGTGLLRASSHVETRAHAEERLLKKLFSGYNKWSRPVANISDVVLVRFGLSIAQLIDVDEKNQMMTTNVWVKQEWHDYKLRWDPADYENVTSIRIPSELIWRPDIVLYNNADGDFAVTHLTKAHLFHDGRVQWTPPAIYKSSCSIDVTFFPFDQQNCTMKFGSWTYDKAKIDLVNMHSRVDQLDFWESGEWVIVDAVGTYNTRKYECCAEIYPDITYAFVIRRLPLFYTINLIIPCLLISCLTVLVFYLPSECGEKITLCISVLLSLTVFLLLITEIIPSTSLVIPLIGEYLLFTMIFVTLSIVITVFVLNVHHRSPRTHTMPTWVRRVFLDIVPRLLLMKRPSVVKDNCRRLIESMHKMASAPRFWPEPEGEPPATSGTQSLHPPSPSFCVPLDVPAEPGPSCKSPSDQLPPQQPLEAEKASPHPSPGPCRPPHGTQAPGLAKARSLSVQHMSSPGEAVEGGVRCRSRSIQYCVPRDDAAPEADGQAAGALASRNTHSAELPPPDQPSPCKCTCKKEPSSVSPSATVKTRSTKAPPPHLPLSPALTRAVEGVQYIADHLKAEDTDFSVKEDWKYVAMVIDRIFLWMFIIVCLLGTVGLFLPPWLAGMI
Motilin receptor, sequence (O43193 whole entry): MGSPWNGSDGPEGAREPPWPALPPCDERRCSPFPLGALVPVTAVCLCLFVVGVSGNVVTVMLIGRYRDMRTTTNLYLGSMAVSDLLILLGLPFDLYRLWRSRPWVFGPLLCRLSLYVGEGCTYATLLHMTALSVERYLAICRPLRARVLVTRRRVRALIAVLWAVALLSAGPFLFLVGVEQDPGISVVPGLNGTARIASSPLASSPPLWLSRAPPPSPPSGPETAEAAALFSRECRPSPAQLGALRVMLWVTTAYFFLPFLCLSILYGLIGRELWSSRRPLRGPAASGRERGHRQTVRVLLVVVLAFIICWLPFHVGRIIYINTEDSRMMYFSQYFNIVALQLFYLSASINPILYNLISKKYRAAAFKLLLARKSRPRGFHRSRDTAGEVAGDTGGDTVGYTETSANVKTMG
5-hydroxytryptamine receptor 2B, sequence (P41595 whole entry): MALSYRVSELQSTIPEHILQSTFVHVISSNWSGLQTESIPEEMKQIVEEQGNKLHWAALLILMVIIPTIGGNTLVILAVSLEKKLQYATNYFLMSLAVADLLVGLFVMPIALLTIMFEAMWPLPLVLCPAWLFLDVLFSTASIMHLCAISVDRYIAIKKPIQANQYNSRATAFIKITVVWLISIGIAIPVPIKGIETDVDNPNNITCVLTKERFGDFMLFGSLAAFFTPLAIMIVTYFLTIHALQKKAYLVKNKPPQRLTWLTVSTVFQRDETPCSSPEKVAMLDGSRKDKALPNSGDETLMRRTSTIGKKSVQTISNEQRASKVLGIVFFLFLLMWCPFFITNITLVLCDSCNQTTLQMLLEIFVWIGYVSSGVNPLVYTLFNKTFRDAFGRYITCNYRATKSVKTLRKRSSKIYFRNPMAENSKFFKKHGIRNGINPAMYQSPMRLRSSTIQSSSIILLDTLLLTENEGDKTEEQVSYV
cGMP-inhibited 3',5'-cyclic phosphodiesterase 3A, sequence (Q14432 whole entry): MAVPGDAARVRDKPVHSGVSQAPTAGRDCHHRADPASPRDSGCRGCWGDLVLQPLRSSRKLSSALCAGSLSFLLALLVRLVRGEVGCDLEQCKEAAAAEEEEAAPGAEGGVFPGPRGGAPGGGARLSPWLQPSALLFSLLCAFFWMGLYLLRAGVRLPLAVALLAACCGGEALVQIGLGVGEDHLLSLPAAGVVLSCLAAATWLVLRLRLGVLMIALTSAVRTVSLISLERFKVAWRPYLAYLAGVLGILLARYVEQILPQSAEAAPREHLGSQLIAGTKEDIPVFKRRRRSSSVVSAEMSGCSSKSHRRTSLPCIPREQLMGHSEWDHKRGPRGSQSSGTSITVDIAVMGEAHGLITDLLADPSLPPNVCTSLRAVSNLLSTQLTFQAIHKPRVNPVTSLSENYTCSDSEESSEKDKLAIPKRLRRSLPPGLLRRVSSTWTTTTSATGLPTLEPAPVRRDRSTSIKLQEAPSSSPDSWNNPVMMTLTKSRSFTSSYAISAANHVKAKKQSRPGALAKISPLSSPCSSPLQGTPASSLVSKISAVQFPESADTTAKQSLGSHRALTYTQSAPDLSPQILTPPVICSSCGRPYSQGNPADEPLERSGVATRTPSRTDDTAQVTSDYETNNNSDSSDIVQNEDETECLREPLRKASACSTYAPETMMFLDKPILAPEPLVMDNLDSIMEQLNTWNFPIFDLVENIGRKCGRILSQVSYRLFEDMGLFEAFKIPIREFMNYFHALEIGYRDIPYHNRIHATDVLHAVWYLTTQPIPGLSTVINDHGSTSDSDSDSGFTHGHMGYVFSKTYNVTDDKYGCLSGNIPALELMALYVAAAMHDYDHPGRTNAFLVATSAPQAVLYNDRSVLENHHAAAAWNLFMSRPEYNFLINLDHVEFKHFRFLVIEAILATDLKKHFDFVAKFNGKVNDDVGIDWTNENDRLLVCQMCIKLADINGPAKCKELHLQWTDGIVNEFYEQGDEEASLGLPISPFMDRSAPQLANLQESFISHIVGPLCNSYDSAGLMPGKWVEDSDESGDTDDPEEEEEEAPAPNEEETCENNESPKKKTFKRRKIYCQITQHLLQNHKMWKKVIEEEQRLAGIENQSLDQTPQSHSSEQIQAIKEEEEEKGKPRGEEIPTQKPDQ

As for `O=C1c2c(O)c(=O)ccn2N([C@@H]2c3ccccc3SCc3c2ccc(F)c3F)[C@@H]2COCCN12` [BALOXAVIR], at Bile salt export pump, the AC50 is 24 µM.

With `O=C1CC[C@@]2(O)[C@H]3Cc4ccc(O)c5c4[C@@]2(CCN3CC2CC2)[C@H]1O5` [NALTREXONE], the AC50 on Bile salt export pump is greater than 300 µM.

Turning to `CC(C)C(=O)Nc1ccc([N+](=O)[O-])c(C(F)(F)F)c1` [FLUTAMIDE], the AC50 on Adenosine receptor A1 was greater than 30 µM; in experiment [1], greater than 30 µM; in [2] it was greater than 10 µM; in [3], greater than 10 µM; in experiment [4], greater than 30 µM; on Motilin receptor, greater than 30 µM. Also, the half-maximal activity concentration (AC50) in [5] was greater than 30 µM; in experiment [6], greater than 10 µM; in experiment [7], greater than 30 µM; in experiment [8], greater than 10 µM.

For `CN(C)C(=O)Oc1ccc[n+](C)c1` [PYRIDOSTIGMINE], at Bile salt export pump, the AC50 is greater than 300 µM.

Consider `CC(C)OC(=O)[C@H](C)N[P@](=O)(OC[C@H]1O[C@@H](n2ccc(=O)[nH]c2=O)[C@](C)(F)[C@@H]1O)Oc1ccccc1` [SOFOSBUVIR], for which the AC50 on Bile salt export pump was 270 µM.

`CC(N/C(=N\C#N)Nc1ccncc1)C(C)(C)C` (stereo not given) [PINACIDIL ANHYDROUS]: the AC50 at Bile salt export pump is 290 µM.

With `COc1cc(Nc2c(C#N)cnc3cc(OCCCN4CCN(C)CC4)c(OC)cc23)c(Cl)cc1Cl` [BOSUTINIB], the AC50 at Adenosine receptor A1 was greater than 30 µM; in [1] it was greater than 10 µM; in experiment [4] it was 7 µM; on Motilin receptor, greater than 10 µM; in [5] it was greater than 10 µM; in experiment [6], 32.5 µM. The AC50 in experiment [8] was greater than 30 µM.

Consider `CCOC(=O)c1ccc(O)cc1` [ETHYLPARABEN], for which, at Bile salt export pump, the AC50 is greater than 300 µM.

Consider `C#C[C@]1(O)CC[C@H]2[C@@H]3CCC4=CC(=O)CC[C@@H]4[C@H]3CC[C@@]21CC` [LEVONORGESTREL], for which the AC50 on Bile salt export pump was 94 µM.

On to `Sc1ncnc2nc[nH]c12` [MERCAPTOPURINE ANHYDROUS], for which, at Bile salt export pump, the AC50 was greater than 300 µM.

As to `CC(O)CO` (stereo not given) [PROPYLENE GLYCOL], the AC50 on Bile salt export pump is greater than 300 µM.

In the case of `Cc1cc2c(cc1CC(=O)c1sccc1S(=O)(=O)Nc1onc(C)c1Cl)OCO2` [SITAXENTAN], the AC50 on Bile salt export pump is 9.7 µM.

As for `OCCN1CCN(CCCN2c3ccccc3C=Cc3ccccc32)CC1` [OPIPRAMOL], the AC50 (at Adenosine receptor A1; in [1]; in experiment [2]; in [3]; in [4]; at Motilin receptor) was greater than 30 µM each time. For the same molecule, the AC50 in experiment [5], in [6], in [7] and in [8] was greater than 30 µM throughout.

As for `Cc1cc(O)cc(C)c1Cl` [CHLOROXYLENOL], the AC50 on Bile salt export pump was greater than 300 µM.

On to `Cc1c(-c2ccccc2)oc2c(C(=O)OCCN3CCCCC3)cccc2c1=O` [FLAVOXATE], for which, at Bile salt export pump, the AC50 worked out at 220 µM.

As for `C[N+]1(C)[C@@H]2C[C@@H](OC(=O)[C@H](CO)c3ccccc3)C[C@H]1[C@@H]1O[C@@H]12` [METHSCOPOLAMINE], the AC50 on Bile salt export pump is greater than 300 µM.

Regarding `CN1CCCC(CN2c3ccccc3Sc3ccccc32)C1` (stereo not given) [MEPAZINE], the AC50 at Bile salt export pump worked out at 100 µM.

As to `OC[C@@H](O)[C@@H](O)[C@H](O)[C@H](O)CO` [MANNITOL], at Bile salt export pump, the AC50 is greater than 300 µM.

For `CN(C)CCCN1c2ccccc2CCc2ccc(Cl)cc21` [CLOMIPRAMINE], the AC50 in [1] is greater than 10 µM; in experiment [2], greater than 30 µM; in experiment [3], greater than 10 µM; in [4] it was 0.53 µM; in [5], greater than 30 µM; in [7], greater than 10 µM.

`CCOC(=O)N[C@@H]1CC[C@@H]2[C@@H](C1)C[C@H]1C(=O)O[C@H](C)[C@H]1[C@H]2/C=C/c1ccc(-c2cccc(F)c2)cn1` [VORAPAXAR]: the AC50 at Bile salt export pump worked out at 2.2 µM.

With `CC(=O)OC[C@H]1O[C@@H](n2ccc(=O)[nH]c2=O)[C@H](OC(C)=O)[C@@H]1OC(C)=O` [URIDINE TRIACETATE], the AC50 on Bile salt export pump is greater than 300 µM.

The AC50 is the midpoint of the concentration-response curve, whichever way the signal moves.
